The test system of data set [1] is Nek2. The settings on record: read-out: Nek2 inhibitory activity IC50; cited from earlier work.
Data set [2] can be described thus: HPLC analysis of enamine stability in assay media, DMSO and pH buffers. The format is physicochemical. As for the experimental part: To determine whether the enamines were hydrolysed under the assay conditions, the stability of representative enamine derivative 72 was assessed in a range of assay media and pH buffers. Stock solutions of 72 in each of the various media were prepared and aliquots were extracted from each solution at various time points and subjected to HPLC analysis to measure the remaining intact enamine (Figure 9).
Solutions of 10 μM 72 were prepared in100% MEM media, 100% RPMI media, 10% (v/v) FCS in MEM, 10% BSA in water (v/v), 10 % FCS (v/v) in water, or 10 % (v/v) boiled FCS in water, DMSO and phosphate buffered water at pH 2, pH 7 and pH 10 by adding 10 μL of the 1 mM working stock of 72 in MeCN to 990 μL of each medium. A 50 μL aliquot was removed directly and immediately extracted as described below. At 5, 10, 15, 30, 60, 90, 120, 180, 240, 360 and 1440 minutes after addition of the drug further aliquots of 50 μL were taken and extracted as below. At each time point the 50 μL of the test solution was added to 50 μL of acetonitrile (MeCN). Samples were mixed for 10 seconds on a vortex mixer and centrifuged at 15700 rcf for 5 minutes in a microcentrifuge. The supernatant solution from each sample was placed into an HPLC vial for analysis. Samples were analysed by reverse phase HPLC with PDA detection.

Data set [3] can be described thus: HPLC analysis of enamine stability in human plasma. The format is in vitro ADME. Particulars: over a period of 24 hours.

pIC50: −log10 of the molar value.

Broadly, the pIC50 is the IC50 on a negative log10 scale, so that one unit is a factor of ten. Regarding `C[C@@]12c3ccc4c(c3C(=O)c3occ(c31)C(=O)C[C@H]2O)CCC4=O` [Compound 4], the negative-log IC50 (pIC50) in data set [1] was 5.72.

As to `C(=C\N1CCCCCC1)/c1nc(Nc2ccccc2)nc2[nH]cnc12` [Compound 72, (E)-6-(2-(Azepan-1-yl)vinyl)-N-phenyl-9H-purin-2-amine], in data set [2] (DMSO solutions, for over 24 h), the “stability in DMSO” value is recorded as “stable”. Moreover, the “stability in standard assay media” value in data set [2] (MEM and RPMI media, 10 μM, HPLC) is recorded as “degraded at a similar rate”. Moreover, the “stability at acidic pH” value in data set [2] (pH 2.2) is given as “relatively stable”. Besides, the “stability at neutral pH” value in data set [2] (pH 7) is “rapidly degraded”. Further, the “stability at basic pH” value in data set [2] (pH 10.4) was “rapidly degraded”. For the same molecule, the “stability in human plasma” value in data set [3] was “relatively stable”.

(Values after publication PMC5386672, “Structure-guided design of purine-based probes for selective Nek2 inhibition” (Oncotarget, 2016).)
